Data from PubChem BioAssay (NCI).
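Grown in 96-well plates, cells were treated for 48 hours with each compound at five concentrations. Insufficient inhibition: endpoint recorded as highest concentration tested. GI50 is the concentration that inhibits growth by half. TGI: concentration producing complete growth inhibition.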

Columns and labels:
Assay in all cases: growth of human tumour cells (NCI), 48 h
HT29 colon = system: HT29 colon
CCRF-CEM leukemia = system: CCRF-CEM leukemia
MDA-MB-435 = system: MDA-MB-435
CAKI-1 renal = system: CAKI-1 renal
XF 498 CNS = system: XF 498 CNS
M14 melanoma = system: M14 melanoma
M19-MEL melanoma = system: M19-MEL melanoma
SK-OV-3 ovarian = system: SK-OV-3 ovarian
SF-268 CNS = system: SF-268 CNS
ACHN renal = system: ACHN renal
HCT-116 colon = system: HCT-116 colon
IGROV1 ovarian = system: IGROV1 ovarian
UO-31 renal = system: UO-31 renal
HCT-15 colon = system: HCT-15 colon
A549 NSCLC = system: A549 NSCLC
SR leukemia = system: SR leukemia
SK-MEL-5 melanoma = system: SK-MEL-5 melanoma
UACC-62 melanoma = system: UACC-62 melanoma
K-562 leukemia = system: K-562 leukemia
OVCAR-5 ovarian = system: OVCAR-5 ovarian
SF-295 CNS = system: SF-295 CNS
OVCAR-4 ovarian = system: OVCAR-4 ovarian
HS 578T breast = system: HS 578T breast
HL-60(TB) leukemia = system: HL-60(TB) leukemia
MALME-3M melanoma = system: MALME-3M melanoma
KM12 colon = system: KM12 colon
DMS 114 small cell lung = system: DMS 114 small cell lung
EKVX NSCLC = system: EKVX NSCLC
COLO 205 colon = system: COLO 205 colon
TK-10 renal = system: TK-10 renal
SW-620 colon = system: SW-620 colon
SK-MEL-2 melanoma = system: SK-MEL-2 melanoma
NCI-H226 lung = system: NCI-H226 lung
A498 renal = system: A498 renal
RPMI-8226 leukemia = system: RPMI-8226 leukemia
HOP-92 NSCLC = system: HOP-92 NSCLC
NCI-H460 lung = system: NCI-H460 lung
BT-549 breast = system: BT-549 breast
SN12C renal = system: SN12C renal
T-47D breast = system: T-47D breast
MOLT-4 leukemia = system: MOLT-4 leukemia
MCF7 breast = system: MCF7 breast
RXF 393 renal = system: RXF 393 renal
NCI-H522 lung = system: NCI-H522 lung
786-0 renal = system: 786-0 renal
LOX IMVI melanoma = system: LOX IMVI melanoma
LXFL 529 NSCLC = system: LXFL 529 NSCLC
HCC-2998 colon = system: HCC-2998 colon
SNB-78 CNS = system: SNB-78 CNS
SK-MEL-28 melanoma = system: SK-MEL-28 melanoma
MDA-MB-231 breast = system: MDA-MB-231 breast
DMS 273 small cell lung = system: DMS 273 small cell lung
OVCAR-3 ovarian = system: OVCAR-3 ovarian
SNB-75 CNS = system: SNB-75 CNS
NCI/ADR-RES ovarian = system: NCI/ADR-RES ovarian
U251 CNS = system: U251 CNS
SNB-19 CNS = system: SNB-19 CNS
PC-3 prostate = system: PC-3 prostate
UACC-257 melanoma = system: UACC-257 melanoma
RXF-631 renal = system: RXF-631 renal
NCI-H23 lung = system: NCI-H23 lung
HOP-62 NSCLC = system: HOP-62 NSCLC
SF-539 CNS = system: SF-539 CNS
OVCAR-8 ovarian = system: OVCAR-8 ovarian
DU-145 prostate = system: DU-145 prostate

## Nc1n[n+](=O)c2ccccc2n1O
HT29 colon
  TGI: > 100 µM
CCRF-CEM leukemia
  TGI: > 100 µM
MDA-MB-435
  GI50: > 100 µM
  TGI: > 100 µM
CAKI-1 renal
  TGI: > 100 µM
XF 498 CNS
  TGI: > 100 µM
M14 melanoma
  TGI: > 100 µM
M19-MEL melanoma
  TGI: > 100 µM
SK-OV-3 ovarian
  TGI: > 100 µM
SF-268 CNS
  TGI: > 100 µM
ACHN renal
  TGI: > 100 µM
HCT-116 colon
  GI50: 62.9 µM
  TGI: > 100 µM
IGROV1 ovarian
  TGI: > 100 µM
UO-31 renal
  TGI: > 100 µM
HCT-15 colon
  TGI: > 100 µM
A549 NSCLC
  TGI: > 100 µM
SR leukemia
  GI50: 20.6 µM
  TGI: > 100 µM
SK-MEL-5 melanoma
  TGI: > 65.7 µM
UACC-62 melanoma
  TGI: > 100 µM
K-562 leukemia
  TGI: > 100 µM
OVCAR-5 ovarian
  TGI: > 100 µM
SF-295 CNS
  TGI: > 100 µM
OVCAR-4 ovarian
  TGI: > 100 µM
HS 578T breast
  GI50: > 100 µM
  TGI: > 100 µM
HL-60(TB) leukemia
  TGI: > 100 µM
MALME-3M melanoma
  TGI: > 100 µM
KM12 colon
  TGI: > 100 µM
DMS 114 small cell lung
  TGI: > 100 µM
EKVX NSCLC
  TGI: > 100 µM
COLO 205 colon
  TGI: > 100 µM
TK-10 renal
  TGI: > 100 µM
SW-620 colon
  TGI: > 100 µM
SK-MEL-2 melanoma
  TGI: > 100 µM
NCI-H226 lung
  TGI: > 100 µM
A498 renal
  GI50: 11.9 µM
  TGI: > 100 µM
RPMI-8226 leukemia
  TGI: > 100 µM
HOP-92 NSCLC
  TGI: > 100 µM
NCI-H460 lung
  TGI: > 100 µM
BT-549 breast
  GI50: 19.3 µM
  TGI: > 100 µM
SN12C renal
  TGI: > 100 µM
T-47D breast
  GI50: 38.4 µM
  TGI: > 100 µM
MOLT-4 leukemia
  TGI: > 100 µM
MCF7 breast
  GI50: 60.5 µM
  TGI: > 100 µM
RXF 393 renal
  TGI: > 100 µM
NCI-H522 lung
  TGI: > 100 µM
786-0 renal
  TGI: > 100 µM
LOX IMVI melanoma
  TGI: > 100 µM
LXFL 529 NSCLC
  TGI: > 100 µM
HCC-2998 colon
  GI50: 50.7 µM
  TGI: > 100 µM
SNB-78 CNS
  TGI: > 100 µM
SK-MEL-28 melanoma
  TGI: > 100 µM
MDA-MB-231 breast
  GI50: > 100 µM
  TGI: > 100 µM
DMS 273 small cell lung
  TGI: > 100 µM
OVCAR-3 ovarian
  TGI: > 100 µM
SNB-75 CNS
  TGI: > 100 µM
NCI/ADR-RES ovarian
  GI50: 55.2 µM
  TGI: > 100 µM
U251 CNS
  TGI: > 100 µM
SNB-19 CNS
  TGI: > 100 µM
PC-3 prostate
  GI50: 94.3 µM
  TGI: > 100 µM
UACC-257 melanoma
  TGI: > 100 µM
RXF-631 renal
  TGI: > 100 µM
NCI-H23 lung
  GI50: 29.6 µM
  TGI: > 100 µM
HOP-62 NSCLC
  TGI: > 100 µM
SF-539 CNS
  TGI: > 100 µM
OVCAR-8 ovarian
  TGI: > 100 µM
DU-145 prostate
  GI50: 69.1 µM
  TGI: > 100 µM
